Key:
Conditions in all cases: 72 h
BV-173 [1] = system: BV-173
Summary of the method: (§1)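 The IC50 was derived from log-logistic dose–response fitting. Each of fifteen myeloid leukaemia cell lines, seeded in RPMI 1640 within its linear growth range, was exposed in 384-well plates to five tenfold doses (1 to 10,000 nM) in duplicate for 72 h at 37 °C and 5% CO2. Luminescent ATP viability readings were normalised to vehicle and to a positive control at 10 µM before four-parameter curve fitting.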

HEL [2] = system: HEL
Summary of the method: as §1

HL-60 [3] = system: HL-60
Summary of the method: as §1

K-562 [4] = system: K-562
Summary of the method: as §1

KCL-22 [5] = system: KCL-22
Summary of the method: as §1

KG-1 [6] = system: KG-1
Summary of the method: as §1

KU-812 [7] = system: KU-812
Summary of the method: as §1

LAMA-84 [8] = system: LAMA-84
Summary of the method: as §1

ML-2 [9] = system: ML-2
Summary of the method: as §1

MOLM-13 [10] = system: MOLM-13
Summary of the method: as §1

MV4-11 [11] = system: MV4-11
Summary of the method: as §1

Mono-Mac-6 [12] = system: Mono-Mac-6
Summary of the method: as §1

NOMO-1 [13] = system: NOMO-1
Summary of the method: as §1

SHI-1 [14] = system: SHI-1
Summary of the method: as §1

THP-1 [15] = system: THP-1
Summary of the method: as §1

BV-173 [16] = assay: cell viability (% survival relative to DMSO control, bortezomib = 0%); higher = less cytotoxic
Summary of the method: (§2)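 Fifteen myeloid leukaemia cell lines (10 AML, 5 CML) were seeded at a density titrated to the linear growth range into 384-well plates pre-printed with compounds at 1, 10, 100, 1000 or 10000 nM in duplicate. Plates were incubated for 72 h at 37 °C with 5% CO2. Viability was then read by CellTiter-Glo luminescence. Each value is percent survival averaged over the duplicates, with vehicle set to 100% and a 10 µM positive control to 0%.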

HEL [17] = assay: as above
Summary of the method: as §2

HL-60 [18] = assay: as above
Summary of the method: as §2

K-562 [19] = assay: as above
Summary of the method: as §2

KCL-22 [20] = assay: as above
Summary of the method: as §2

KG-1 [21] = assay: as above
Summary of the method: as §2

KU-812 [22] = assay: as above
Summary of the method: as §2

LAMA-84 [23] = assay: as above
Summary of the method: as §2

ML-2 [24] = assay: as above
Summary of the method: as §2

MOLM-13 [25] = assay: as above
Summary of the method: as §2

MV4-11 [26] = assay: as above
Summary of the method: as §2

Mono-Mac-6 [27] = assay: as above
Summary of the method: as §2

NOMO-1 [28] = assay: as above
Summary of the method: as §2

SHI-1 [29] = assay: as above
Summary of the method: as §2

THP-1 [30] = assay: as above
Summary of the method: as §2

COc1cc(/C=C/c2ccc(OC)cc2OC)cc(OC)c1 [2,3',4,5'-Tetramethoxystilbene]
Conditions	IC50 (cell viability) [µM]
BV-173 [1]	> 10
HEL [2]	> 10
HL-60 [3]	> 10
K-562 [4]	> 10
KCL-22 [5]	> 10
KG-1 [6]	> 10
KU-812 [7]	> 10
LAMA-84 [8]	> 10
ML-2 [9]	> 10
MOLM-13 [10]	> 10
MV4-11 [11]	> 10
Mono-Mac-6 [12]	> 10
NOMO-1 [13]	> 10
SHI-1 [14]	> 10
THP-1 [15]	> 10

cell viability [%]
Conditions	1 nM	10 nM	100 nM	1000 nM	10000 nM
BV-173 [16]	104	104	99.1	103	79.6
HEL [17]	106	106	99.2	103	106
HL-60 [18]	109	86.2	96.2	105	81.2
K-562 [19]	108	113	106	101	89.5
KCL-22 [20]	94.7	110	98.7	106	104
KG-1 [21]	94.9	110	91.9	101	79.7
KU-812 [22]	101	95.5	96.9	97.4	76.8
LAMA-84 [23]	103	104	99.4	96.4	94.3
ML-2 [24]	80.1	102	102	115	72.9
MOLM-13 [25]	105	105	86.4	107	100
MV4-11 [26]	103	106	98.4	98.4	86
Mono-Mac-6 [27]	94.6	97.2	95.3	100	104
NOMO-1 [28]	97.5	106	95.7	108	94.9
SHI-1 [29]	99.7	123	99.4	104	98.9
THP-1 [30]	97.3	107	108	109	75.3

CC(C)(O)CNc1nc(Nc2ccnc(C(F)(F)F)c2)nc(-c2cccc(C(F)(F)F)n2)n1 [Enasidenib]
Conditions	IC50 (cell viability) [µM]
BV-173 [1]	> 10
HEL [2]	> 10
HL-60 [3]	> 10
K-562 [4]	> 10
KCL-22 [5]	> 10
KG-1 [6]	> 10
KU-812 [7]	> 10
LAMA-84 [8]	> 10
ML-2 [9]	> 10
MOLM-13 [10]	> 10
MV4-11 [11]	> 10
Mono-Mac-6 [12]	> 10
NOMO-1 [13]	> 10
SHI-1 [14]	> 10
THP-1 [15]	> 10

cell viability [%]
Conditions	1 nM	10 nM	100 nM	1000 nM	10000 nM
BV-173 [16]	101	90.7	121	98.4	90
HEL [17]	106	106	123	111	85.6
HL-60 [18]	118	108	118	99.1	106
K-562 [19]	93.1	98.3	98.3	95.2	82.5
KCL-22 [20]	89.2	102	113	97.4	93.6
KG-1 [21]	103	95	107	92.8	117
KU-812 [22]	92.4	97.2	103	90	93.2
LAMA-84 [23]	101	94.8	99.1	104	103
ML-2 [24]	109	100	113	97.3	68.8
MOLM-13 [25]	83.9	90.8	98.5	101	103
MV4-11 [26]	101	88.9	112	103	81.1
Mono-Mac-6 [27]	94.8	100	113	107	126
NOMO-1 [28]	98.3	98.8	107	93.6	92.9
SHI-1 [29]	109	105	114	113	109
THP-1 [30]	101	103	114	93.5	97.5
